Experiment: xn = mol fraction of the nth substance listed
Details: isochoric method

C=C(F)C(F)(F)F [2,3,3,3-tetrafluoro-1-propene] + O=C=O
Details	molar volume [m3/mol]
223.07 K, 420.2 kPa, Fluid (supercritical or subcritical phases), x2 = 0.662	0.001227
223.08 K, 197.6 kPa, Fluid (supercritical or subcritical phases), x2 = 0.365	0.002253
223.28 K, 95.7 kPa, Fluid (supercritical or subcritical phases), x2 = 0.16	0.002938
223.62 K, 147.7 kPa, Fluid (supercritical or subcritical phases), x2 = 0.266	0.002569
223.63 K, 312 kPa, Fluid (supercritical or subcritical phases), x2 = 0.574	0.002153
224.2 K, 460.3 kPa, Fluid (supercritical or subcritical phases), x2 = 0.754	0.001747
224.91 K, 61.7 kPa, Fluid (supercritical or subcritical phases), x2 = 0.051	0.002894
225.14 K, 271.4 kPa, Fluid (supercritical or subcritical phases), x2 = 0.48	0.002063
232.92 K, 331.8 kPa, Fluid (supercritical or subcritical phases), x2 = 0.48	0.002063
232.97 K, 252.9 kPa, Fluid (supercritical or subcritical phases), x2 = 0.365	0.002254
232.97 K, 559 kPa, Fluid (supercritical or subcritical phases), x2 = 0.662	0.001227
233 K, 129.7 kPa, Fluid (supercritical or subcritical phases), x2 = 0.16	0.002939
233.01 K, 387.5 kPa, Fluid (supercritical or subcritical phases), x2 = 0.574	0.002154
233.06 K, 576 kPa, Fluid (supercritical or subcritical phases), x2 = 0.754	0.001747
233.09 K, 190.8 kPa, Fluid (supercritical or subcritical phases), x2 = 0.266	0.00257
233.25 K, 86.7 kPa, Fluid (supercritical or subcritical phases), x2 = 0.051	0.002895
242.68 K, 174.3 kPa, Fluid (supercritical or subcritical phases), x2 = 0.16	0.00294
242.84 K, 412.5 kPa, Fluid (supercritical or subcritical phases), x2 = 0.48	0.002064
242.95 K, 711.4 kPa, Fluid (supercritical or subcritical phases), x2 = 0.662	0.001228
242.99 K, 322.1 kPa, Fluid (supercritical or subcritical phases), x2 = 0.365	0.002255
243.03 K, 246 kPa, Fluid (supercritical or subcritical phases), x2 = 0.266	0.002571
243.04 K, 710.6 kPa, Fluid (supercritical or subcritical phases), x2 = 0.754	0.001748
243.07 K, 124.7 kPa, Fluid (supercritical or subcritical phases), x2 = 0.051	0.002896
243.08 K, 479.4 kPa, Fluid (supercritical or subcritical phases), x2 = 0.574	0.002155
252.69 K, 399.3 kPa, Fluid (supercritical or subcritical phases), x2 = 0.365	0.002256
252.82 K, 234.8 kPa, Fluid (supercritical or subcritical phases), x2 = 0.16	0.002942
252.82 K, 504.1 kPa, Fluid (supercritical or subcritical phases), x2 = 0.48	0.002065
252.9 K, 876.2 kPa, Fluid (supercritical or subcritical phases), x2 = 0.662	0.001228
252.95 K, 315.1 kPa, Fluid (supercritical or subcritical phases), x2 = 0.266	0.002572
252.97 K, 179 kPa, Fluid (supercritical or subcritical phases), x2 = 0.051	0.002897
253.03 K, 574.3 kPa, Fluid (supercritical or subcritical phases), x2 = 0.574	0.002156
253.04 K, 842.3 kPa, Fluid (supercritical or subcritical phases), x2 = 0.754	0.001749
262.58 K, 492.3 kPa, Fluid (supercritical or subcritical phases), x2 = 0.365	0.002257
262.8 K, 313 kPa, Fluid (supercritical or subcritical phases), x2 = 0.16	0.002943
262.86 K, 610.6 kPa, Fluid (supercritical or subcritical phases), x2 = 0.48	0.002066
262.94 K, 1044 kPa, Fluid (supercritical or subcritical phases), x2 = 0.662	0.001229
262.95 K, 401.7 kPa, Fluid (supercritical or subcritical phases), x2 = 0.266	0.002573
262.96 K, 686 kPa, Fluid (supercritical or subcritical phases), x2 = 0.574	0.002157
263.01 K, 980.1 kPa, Fluid (supercritical or subcritical phases), x2 = 0.754	0.00175
263.06 K, 253.3 kPa, Fluid (supercritical or subcritical phases), x2 = 0.051	0.002899
272.66 K, 609 kPa, Fluid (supercritical or subcritical phases), x2 = 0.365	0.002258
272.75 K, 412.9 kPa, Fluid (supercritical or subcritical phases), x2 = 0.16	0.002944
272.82 K, 813.7 kPa, Fluid (supercritical or subcritical phases), x2 = 0.574	0.002158
272.83 K, 1223.1 kPa, Fluid (supercritical or subcritical phases), x2 = 0.662	0.001229
272.84 K, 734.4 kPa, Fluid (supercritical or subcritical phases), x2 = 0.48	0.002067
272.93 K, 348.1 kPa, Fluid (supercritical or subcritical phases), x2 = 0.051	0.0029
272.93 K, 509.9 kPa, Fluid (supercritical or subcritical phases), x2 = 0.266	0.002574
272.98 K, 1122.7 kPa, Gas, x2 = 0.754	0.00175
282.56 K, 466.4 kPa, Fluid (supercritical or subcritical phases), x2 = 0.051	0.002901
282.57 K, 537.9 kPa, Fluid (supercritical or subcritical phases), x2 = 0.16	0.002945
282.62 K, 884.2 kPa, Fluid (supercritical or subcritical phases), x2 = 0.48	0.002068
282.63 K, 1179.9 kPa, Gas, x2 = 0.754	0.001751
282.64 K, 1417.7 kPa, Fluid (supercritical or subcritical phases), x2 = 0.662	0.00123
282.69 K, 751.6 kPa, Fluid (supercritical or subcritical phases), x2 = 0.365	0.002259
282.75 K, 641.4 kPa, Fluid (supercritical or subcritical phases), x2 = 0.266	0.002575
282.88 K, 940.5 kPa, Gas, x2 = 0.574	0.002159
292.47 K, 673.8 kPa, Gas, x2 = 0.16	0.002947
292.6 K, 1003.3 kPa, Gas, x2 = 0.48	0.002069
292.67 K, 1237.7 kPa, Gas, x2 = 0.754	0.001752
292.69 K, 1614 kPa, Gas, x2 = 0.662	0.001231
292.7 K, 623 kPa, Fluid (supercritical or subcritical phases), x2 = 0.051	0.002902
292.75 K, 804.6 kPa, Fluid (supercritical or subcritical phases), x2 = 0.266	0.002577
292.85 K, 906.8 kPa, Gas, x2 = 0.365	0.00226
292.91 K, 1004.6 kPa, Gas, x2 = 0.574	0.00216
302.61 K, 742.4 kPa, Gas, x2 = 0.16	0.002948
302.61 K, 1055.6 kPa, Gas, x2 = 0.48	0.00207
302.67 K, 1296 kPa, Gas, x2 = 0.754	0.001753
302.81 K, 736.5 kPa, Gas, x2 = 0.051	0.002904
302.86 K, 1049.3 kPa, Gas, x2 = 0.574	0.002161
302.88 K, 856.1 kPa, Gas, x2 = 0.266	0.002578
302.89 K, 1732.2 kPa, Gas, x2 = 0.662	0.001231
302.96 K, 976.1 kPa, Gas, x2 = 0.365	0.002261
303.05 K, 738 kPa, Gas, x2 = 0.051	0.002904
307.54 K, 758.8 kPa, Gas, x2 = 0.16	0.002949
312.7 K, 1352.4 kPa, Gas, x2 = 0.754	0.001753
312.79 K, 1094.3 kPa, Gas, x2 = 0.574	0.002162
312.82 K, 895.4 kPa, Gas, x2 = 0.266	0.002579
312.84 K, 1814.8 kPa, Gas, x2 = 0.662	0.001232
312.92 K, 1020.4 kPa, Gas, x2 = 0.365	0.002262
312.94 K, 773.7 kPa, Gas, x2 = 0.051	0.002905
313.12 K, 778.4 kPa, Gas, x2 = 0.16	0.002949
313.12 K, 1111.4 kPa, Gas, x2 = 0.48	0.002071
322.6 K, 1062.1 kPa, Gas, x2 = 0.365	0.002263
322.75 K, 808.1 kPa, Gas, x2 = 0.051	0.002906
323.09 K, 811.8 kPa, Gas, x2 = 0.16	0.002951
323.1 K, 934.8 kPa, Gas, x2 = 0.266	0.00258
323.1 K, 1139.4 kPa, Gas, x2 = 0.574	0.002163
323.1 K, 1407.6 kPa, Gas, x2 = 0.754	0.001754
323.1 K, 1898.7 kPa, Gas, x2 = 0.662	0.001232
323.11 K, 1157.2 kPa, Gas, x2 = 0.48	0.002071
333.06 K, 1183.4 kPa, Gas, x2 = 0.574	0.002164
333.07 K, 1106.6 kPa, Gas, x2 = 0.365	0.002264
333.08 K, 844.9 kPa, Gas, x2 = 0.16	0.002952
333.08 K, 972.6 kPa, Gas, x2 = 0.266	0.002581
333.08 K, 1202.8 kPa, Gas, x2 = 0.48	0.002072
333.08 K, 1460.2 kPa, Gas, x2 = 0.754	0.001755
333.08 K, 1979.1 kPa, Gas, x2 = 0.662	0.001233
333.09 K, 843.3 kPa, Gas, x2 = 0.051	0.002907
343.03 K, 1149.4 kPa, Gas, x2 = 0.365	0.002265
343.04 K, 1010.2 kPa, Gas, x2 = 0.266	0.002582
343.04 K, 1227 kPa, Gas, x2 = 0.574	0.002165
343.05 K, 877.5 kPa, Gas, x2 = 0.16	0.002953
343.05 K, 2058.6 kPa, Gas, x2 = 0.662	0.001233
343.06 K, 877.3 kPa, Gas, x2 = 0.051	0.002909
343.07 K, 1512.6 kPa, Gas, x2 = 0.754	0.001756
343.1 K, 1248 kPa, Gas, x2 = 0.48	0.002073
352.97 K, 1292.5 kPa, Gas, x2 = 0.48	0.002074
352.99 K, 909.5 kPa, Gas, x2 = 0.16	0.002954
352.99 K, 1191.4 kPa, Gas, x2 = 0.365	0.002266
352.99 K, 1269.8 kPa, Gas, x2 = 0.574	0.002166
352.99 K, 2136.6 kPa, Gas, x2 = 0.662	0.001234
353 K, 1046.2 kPa, Gas, x2 = 0.266	0.002583
353.02 K, 910.7 kPa, Gas, x2 = 0.051	0.00291
353.02 K, 1564.1 kPa, Gas, x2 = 0.754	0.001756
362.92 K, 943.3 kPa, Gas, x2 = 0.051	0.002911
362.92 K, 1082.5 kPa, Gas, x2 = 0.266	0.002584
362.92 K, 1232.6 kPa, Gas, x2 = 0.365	0.002267
362.94 K, 1311.6 kPa, Gas, x2 = 0.574	0.002167
362.96 K, 941.6 kPa, Gas, x2 = 0.16	0.002956
362.96 K, 1337.1 kPa, Gas, x2 = 0.48	0.002075
362.96 K, 1615.2 kPa, Gas, x2 = 0.754	0.001757
362.97 K, 2214.8 kPa, Gas, x2 = 0.662	0.001234
372.89 K, 973.3 kPa, Gas, x2 = 0.16	0.002957
372.89 K, 1119 kPa, Gas, x2 = 0.266	0.002586
372.92 K, 975.7 kPa, Gas, x2 = 0.051	0.002912
372.92 K, 1354.3 kPa, Gas, x2 = 0.574	0.002167
372.92 K, 1381.3 kPa, Gas, x2 = 0.48	0.002076
372.93 K, 2291.9 kPa, Gas, x2 = 0.662	0.001235

Reference: the NIST ThermoML archive (doi:10.1021/je201051q)
